Patent US9296687B2, “Modulators of HSP70/DnaK function and methods of use thereof” (The Trustees of the University of Pennsylvania, priority 2008, dated 2016)
Peptide text beside a SMILES is read from it. * marks the point of attachment. Cbz = O=C(OCc1ccccc1)*; CH2F = FC*

Tests used:
caspase-3, caspase-8 = assay: Western blot for caspase cleavage; format: cell-based, human; settings: U2OS, 20 μM pretreatment 1 h
tumor cell lines = assay: MTT cell viability assay; format: cell-based, human; settings: 20 μM pretreatment 1 h, then 20 μM PES 24 h
Protocol: Cell viability assays were performed using an MTT (methyl thiazolyl tetrazolium) colorimetric assay (Roche Applied Science, Cat. No. 11 465 007 001), with the following modifications. Briefly, cells (1×10^4) were plated into 24 well-assay plates in 0.5 ml media and allowed to attach overnight. […] After the incubation period, 50 μl of the water-soluble MTT labeling reagent [3-[4,5-dimethylthiazol-2-yl]-2,5-diphenyl tetrazolium bromid] were added to the cells, and the cells were incubated for 4 h in a humidified chamber at 37° C. with 5% CO2. The metabolized insoluble formazan crystals were then solubilized using 0.5 ml of the Solubilization solution (10% SDS in 0.01M HCl) per well, and the resulting colored solutions were spectrophotometrically quantified at an absorbance of 570 nm.

p62/SQSTM1, LC3 = assay: Autophagy markers in cultured cells (vacuoles, LC3-II, p62/SQSTM1, electron microscopy); format: cell-based, human; settings: for p62/SQSTM1 oligomers in soluble and detergent-insoluble fractions: 24 h, PES 20 μM, Velcade 100 nM, CQ 50 μM, 17-AAG 15 nM
HSP70 [1] = molecular target: T1, HSP70 (Homo sapiens, UniProt P0DMV8); assay: In vitro binding of B-PES on NeutrAvidin resins to 35S-labelled in vitro translated protein
Target sequence in this assay (P0DMV8 whole entry): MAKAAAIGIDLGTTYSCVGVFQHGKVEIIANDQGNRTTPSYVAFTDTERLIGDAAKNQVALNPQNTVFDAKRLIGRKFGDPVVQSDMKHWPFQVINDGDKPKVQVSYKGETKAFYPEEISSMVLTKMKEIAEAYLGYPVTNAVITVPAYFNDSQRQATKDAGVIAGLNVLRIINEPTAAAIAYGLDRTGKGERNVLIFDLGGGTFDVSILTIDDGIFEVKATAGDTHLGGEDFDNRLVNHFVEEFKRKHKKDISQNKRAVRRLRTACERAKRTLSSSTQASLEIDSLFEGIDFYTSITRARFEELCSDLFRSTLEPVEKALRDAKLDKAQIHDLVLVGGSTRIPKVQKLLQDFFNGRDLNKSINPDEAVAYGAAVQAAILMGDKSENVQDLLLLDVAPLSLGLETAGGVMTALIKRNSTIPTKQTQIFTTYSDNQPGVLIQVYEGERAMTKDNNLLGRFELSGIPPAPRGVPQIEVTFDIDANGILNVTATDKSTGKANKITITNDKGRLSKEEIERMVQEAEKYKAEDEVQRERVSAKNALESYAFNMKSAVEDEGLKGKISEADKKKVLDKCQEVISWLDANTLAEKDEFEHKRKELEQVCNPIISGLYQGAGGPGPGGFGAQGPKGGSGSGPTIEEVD

HSP70 [2] = molecular target: T1, HSP70; assay: Capture of HA-tagged HSP70 constructs from transfected H1299 cells with biotinylated compound; format: binding; set-up: expressed in transfected cells; host or cells: H1299
Protocol: FIG. 1. PES Binds to HSP70. (A) Whole cell extracts (WCE) prepared from A875 and BCL-xL over-expressing U2OS human osteosarcoma cells (BX-U2OS) cells, treated with Biotin or Biotin-PES (B-PES), were captured using NeutrAvidin agarose resins. HSP70-family proteins were identified as the major product in the excised band of ˜70 kDa shown in both Coomassie gels. (B and C) WCE were prepared from the cell lines indicated following 24 h treatment with 20 μM Biotin or B-PES and examined for the expression of proteins indicated (left panel of B and C) by western blot analysis; note that different exposure times were used to visualize these proteins. […] (D) In vitro evidence for an interaction between B-PES and HSP70. Full-length human HSP70 and human HSP90 proteins were in vitro translated in the presence of ^35S-methionine, mixed with B-PES coupled to NeutrAvidin resins, and eluted using 100 mM DTT. The resulting DTT eluates were separated by polyacrylamide gel electrophoresis (SDS-PAGE) and visualized by autoradiography. (E) B-PES interacts with the C-terminal region of HSP70. H1299 cells were transfected with the indicated hemagglutinin (HA)-tagged constructs and exposed to B-PES. B-PES containing complexes were captured by NeutrAvidin Resins, eluted following 100 mM DTT treatment, and immunoblotted with anti-HA antibody following SDS-PAGE. (F) Non-transformed human IMR90 fibroblasts or H1299 lung carcinoma cells were treated with the indicated concentrations of PES for 24 h and cell viability was determined by MTT assays. (G) WCE were prepared from the cell lines indicated following 5 hr treatment with 20 μM PES or B-PES and examined for the expression of proteins indicated (left panel) by western blot analysis; note that different exposure times were used to visualize these proteins. B-PES-containing complexes were captured by NeutrAvidin resins, eluted following 50 mM DTT treatment, and immunoblotted using the indicated antibodies.
The free amide group of PES-Cl was biotinylated and added to HA-tagged HSP70-transfected H1299 cells. The treatment of the cells occurred for 6 hours. The complexes were pulled down with NeutrAvidin beads, eluted with 100 mM DTT treatments, separated with SDS-PAGE and detected with anti-HA antibody (Millipore) by Western blot.
Docking studies were performed using the C-terminal HSP70 crystal structure (FIG. 32) to elucidate the PES binding site in silico (FIG. 33). Blind docking methods were used in the program AutoDock to locate potential PES binding sites. These methods use a course grid docking approach, encompassing the entire protein, to identify favorable binding sites using a known binding ligand, and are examined by hand to support the AutoDock data. […]

HSP70 [3] = molecular target: T1, HSP70; assay: Biotin-PES complexes captured with NeutrAvidin resins from treated cells, IP-WB; settings: 20 μM
Target sequence in this assay (P0DMV8 whole entry): as above

HSC70 = HSC70 (Homo sapiens, UniProt P11142); assay: as above; settings: 20 μM
Sequence of HSC70 (P11142 whole entry): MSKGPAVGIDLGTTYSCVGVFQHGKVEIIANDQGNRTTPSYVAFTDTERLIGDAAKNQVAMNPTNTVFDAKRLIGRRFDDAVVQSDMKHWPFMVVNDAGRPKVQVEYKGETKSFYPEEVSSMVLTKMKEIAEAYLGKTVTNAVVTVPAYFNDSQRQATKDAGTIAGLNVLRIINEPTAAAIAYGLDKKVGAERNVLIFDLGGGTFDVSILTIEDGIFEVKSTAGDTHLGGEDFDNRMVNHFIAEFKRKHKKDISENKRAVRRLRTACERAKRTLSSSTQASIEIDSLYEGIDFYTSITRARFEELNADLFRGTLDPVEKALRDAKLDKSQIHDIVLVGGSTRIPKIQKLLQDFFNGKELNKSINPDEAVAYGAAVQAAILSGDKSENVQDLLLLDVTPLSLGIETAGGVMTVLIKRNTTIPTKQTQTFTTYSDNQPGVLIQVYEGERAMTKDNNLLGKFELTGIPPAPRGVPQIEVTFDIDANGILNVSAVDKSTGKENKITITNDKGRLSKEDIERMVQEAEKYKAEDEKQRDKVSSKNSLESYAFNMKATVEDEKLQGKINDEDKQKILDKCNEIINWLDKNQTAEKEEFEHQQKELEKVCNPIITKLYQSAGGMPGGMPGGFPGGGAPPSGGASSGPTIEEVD

GRP78 = GRP78 (Homo sapiens, UniProt P11021); assay: as above; settings: 20 μM, 24 h
Sequence of GRP78 (P11021 19-654): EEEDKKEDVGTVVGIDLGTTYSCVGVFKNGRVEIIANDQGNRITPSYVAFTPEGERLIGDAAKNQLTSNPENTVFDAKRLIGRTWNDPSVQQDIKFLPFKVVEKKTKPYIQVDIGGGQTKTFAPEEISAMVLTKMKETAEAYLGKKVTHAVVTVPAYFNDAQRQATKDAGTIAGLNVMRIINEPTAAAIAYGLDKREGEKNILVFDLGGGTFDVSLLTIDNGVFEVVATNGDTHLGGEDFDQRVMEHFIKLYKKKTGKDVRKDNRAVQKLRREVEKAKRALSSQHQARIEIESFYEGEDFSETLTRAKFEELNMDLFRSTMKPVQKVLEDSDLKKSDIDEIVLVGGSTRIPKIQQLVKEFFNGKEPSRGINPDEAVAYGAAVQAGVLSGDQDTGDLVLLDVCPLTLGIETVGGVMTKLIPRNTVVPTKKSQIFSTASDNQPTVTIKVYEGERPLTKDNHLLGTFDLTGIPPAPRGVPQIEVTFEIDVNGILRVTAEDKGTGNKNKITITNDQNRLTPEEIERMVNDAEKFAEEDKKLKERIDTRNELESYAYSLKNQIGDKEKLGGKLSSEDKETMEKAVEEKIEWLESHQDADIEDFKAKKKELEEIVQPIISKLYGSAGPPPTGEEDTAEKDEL

HSP90 = assay: as above; settings: 20 μM, 24 h
HSP70 [4] = molecular target: T1, HSP70; assay: Competition of untagged PES with B-PES for HSP70; format: binding; set-up: endogenous in cells; host or cells: human tumor cell lines (A875, BX-U2OS, U2OS, H1299, MiaPaCa2, HepG2, SKBR3, 293T); settings: purified HSP70, 0.25 mM B-PES, 0.125 mM untagged PES
Protocol: FIG. 15. Evidence supporting HSP70 as the cellular target of PES. (A) Competition studies in vivo support HSP70 as a PES target. H1299 cells were either pre-treated with DMSO or excess (25×) untagged PES for 1 h prior to the addition of 20 μM Biotin-PES (B-PES) for 5 h, and examined for the expression of proteins indicated (left). B-PES-containing complexes were captured by NeutrAvidin Resins, and immunoblotted using the indicated antibodies. […] (B) Competition studies in vitro support HSP70 as a PES target. Purified HSP70 protein was incubated with 0.25 mM B-PES in the absence and in the presence of 0.125 mM untagged PES.
Target sequence in this assay (P0DMV8 whole entry): as the sequence (P0DMV8 whole entry) above

20S proteasome = assay: Cell-based 20S proteasome activity assay; set-up: species or system human; settings: H1299 or A875 cells; PES 20 μM, 17-AAG 1 μM, CQ 5 μM
EGFR, HER2/ErbB2, AKT = assay: Western blot of HSP70/HSP90 client proteins in detergent-soluble and detergent-insoluble fractions; format: cell-based, human
Protocol: FIG. 17. PES impairs the proteasome system. (A) Cell-based 20S proteasome activity assay of H1299 or A875 human tumor cells treated with DMSO, 20 μM PES, 100 nM Velcade (proteasome inhibitor), 1 μM 17-AAG (HSP90 inhibitor), 5 μM CQ (lysosome inhibitor), or 20S proteasome inhibitor epigallocatechin gallate (EGCG). Each graphical representation indicates the mean±SD of at least three independent cultures relative to control (DMSO-treated) cells. (B) Cell extracts from SKBR3 human breast carcinoma cells, treated either with 20 μM PES or 1 μM 17-AAG for 24 h, were immunoprecipitated (IP) using anti-HSP70 or anti-HSP90 antibody. […] MTT assays of MCF7 human breast carcinoma cells pretreated with DMSO, or 5 μM PES for 1 h, followed by the addition of indicated amount of 17-AAG for 47 h. The results represent the mean±SD of at least three independent analysis of cultures relative to control (DMSO-treated) cells. (D and E) H1299 cells (D) or SKBR3 cells (E) were treated with DMSO, 20 μM PES, 17-AAG, or 17-AAG plus bortezomib (Velcade) as indicated; harvested in 1% NP-40 containing lysis buffer; fractionated into detergent-soluble and detergent-insoluble preparations; and assayed by western blot.
FIG. 18. Accumulation of HSP90 client proteins in the protein detergent-insoluble fraction following PES. (A) SKOV3 cells were treated with DMSO, 10 μM PES, or 20 μM PES for 24 h. Note the marked accumulation of EGFR, HER2/ErbB2, and AKT in the detergent-insoluble fraction following 20 μM PES treatment. (B and C) SKOV3 (B) or SKBR3 (C) cells were treated with DMSO, 20 μM PES, or 1 μM 17-AAG, as indicated, for 24 h. Cells were harvested in 1% NP-40 containing lysis buffer, fractionated into detergent-soluble and detergent-insoluble preparations, and assayed by western blot for the proteins indicated.
The HSP70 and HSC70 proteins bind to exposed hydrophobic regions of nascent-, translocating-, misfolded- or partially unfolded-proteins. These ATP-dependent molecular chaperones act in multi-protein complexes in conjunction with one or more regulatory co-chaperones to carry out multiple cellular functions. […] This is illustrated for H1299 cells treated with 10 or 20 μM PES for 24 h. […] This correlates with a reduced abundance of complexes containing HSP70, or HSC70, together with client proteins or co-chaperones (FIGS. 19A and 19B). […] However, since HSP70/HSC70 act as critical co-chaperones for HSP90, for example in client protein recruitment, PES-mediated alteration in the function of the 70-kDa molecular chaperones could be reflected in an altered behavior or expression of many client proteins. To test this idea, we examined the expression of a few well-established HSP90 client proteins, including the transmembrane tyrosine kinase receptors EGFR and HER2/ERBB2, and the downstream signaling factor AKT. These proteins are overexpressed, or aberrantly expressed, in a variety of human tumors, and have been implicated in cancer etiology and pathology. As a control for these studies, we compared the effects of PES to that of the well-established HSP90 inhibitor, 17-allylamino-17-demethoxygeldanamycin (17-AAG). 17-AAG interacts with the N-terminal region of HSP90 and inhibits its ATPase activity; this disrupts interactions of HSP90 with client proteins and leads to client-protein degradation via the ubiquitin-proteasome pathway (Whitesell, et al. 2005; Neckers, et al. 2007). To examine the expression of some HSP70/HSP90 clients, we used western blot analysis of detergent-soluble (clarified) whole cell extracts.

Compound: COC(=O)C[C@H](NC(=O)[C@H](C)NC(=O)[C@@H](NC(=O)OCc1ccccc1)C(C)C)C(=O)CF [Z-VAD-FMK] (Cbz-Val-Ala-Asp(OMe)-CH2F)
- cisplatin- and camptothecin-mediated caspase cleavage (caspase-3, caspase-8): inhibited cisplatin- as well as camptothecin-mediated caspase cleavage
- effect on PES-mediated loss of cell viability (tumor cell lines): did not alter PES-mediated loss of cell viability

Compound: CC(C)C[C@H](NC(=O)[C@H](Cc1ccccc1)NC(=O)c1cnccn1)B(O)O [Velcade, bortezomib]
- p62/SQSTM1 oligomers in soluble and detergent-insoluble fractions (p62/SQSTM1, LC3): promoted p62/SQSTM1 oligomerization primarily in the detergent-insoluble fraction

Compound: O=C(CCCCC1SCC2NC(=O)NC21)NCCSSCCC(=O)NS(=O)(=O)C#Cc1ccccc1 (centres unmarked) [B-PES]
- interaction with in vitro translated HSP70 (HSP70 [1]): interacts with in vitro translated HSP70
- interaction with amino-terminal ATPase domain of HSP70 (HSP70 [2]; amino acids 2-385): not the amino-terminal ATPase domain
- interaction with carboxyl-terminal substrate-binding domain of HSP70 (HSP70 [2]; amino acids 386-641): interacts with the carboxyl-terminal substrate-binding domain
- HSP70 captured with B-PES (HSP70 [3]; IMR90 fibroblasts): did not observe a PES interaction
- interaction with endogenous HSP70 (HSP70 [3]; several cell lines, 24 h): interacts with HSP70
- HSP70 captured with B-PES (HSP70 [3]; tumor cells, 5 hr (FIG. 1G)): found together with this small molecule
- interaction with endogenous HSC70 (HSC70; 24 h): no detectable interaction
- HSC70 captured with B-PES (HSC70; IMR90 fibroblasts): did not observe a PES interaction
- HSC70 captured with B-PES (HSC70; tumor cells, 5 hr (FIG. 1G)): found together with this small molecule
- interaction with endogenous GRP78 (GRP78): no detectable interaction
- interaction with endogenous HSP90 (HSP90): no detectable interaction
- B-PES/HSP70 complex formation (HSP70 [4]): direct interaction between B-PES and HSP70

Compound: C=CCNC1=C2C[C@@H](C)C[C@H](OC)[C@H](O)[C@@H](C)/C=C(\C)[C@H](OC(N)=O)[C@@H](OC)/C=C\C=C(/C)C(=O)NC(=CC1=O)C2=O [17-AAG, 17-allylamino-17-demethoxygeldanamycin]
- p62/SQSTM1 oligomers in soluble and detergent-insoluble fractions (p62/SQSTM1, LC3): neither p62/SQSTM1 accumulation nor oligomerization was noted
- activity of the 20S proteasome (20S proteasome): little, if any, effect
- fate of HSP90 client proteins (EGFR, HER2/ErbB2, AKT): causes proteasome-mediated degradation of HSP90 client proteins
- overall cellular abundance of EGFR, HER2/ErbB2 and AKT (EGFR, HER2/ErbB2, AKT; SKBR3 cells, detergent-soluble extracts, 24 h): reduction in the overall cellular abundance

Compound: C[C@@H]1C[C@@H]([C@H](O)CC2CC(=O)NC(=O)C2)C(=O)[C@@H](C)C1 [CHX, cycloheximide]
- PES-induced p62/SQSTM1 accumulation and oligomerization under co-treatment (p62/SQSTM1, LC3; co-treated with PES for 6 h): reduced the accumulation and oligomerization of the autophagy marker p62/SQSTM1
